This assay has as its target T1, CRF1 receptors (Homo sapiens, UniProt P34998).
T1 construct: endogenous in cells; host or cells: IMR-32 cells, transformed with 2.5 µM 5'-bromo-2'-deoxyuridine for 10 days; membrane preparation
T1 sequence (P34998 24-415): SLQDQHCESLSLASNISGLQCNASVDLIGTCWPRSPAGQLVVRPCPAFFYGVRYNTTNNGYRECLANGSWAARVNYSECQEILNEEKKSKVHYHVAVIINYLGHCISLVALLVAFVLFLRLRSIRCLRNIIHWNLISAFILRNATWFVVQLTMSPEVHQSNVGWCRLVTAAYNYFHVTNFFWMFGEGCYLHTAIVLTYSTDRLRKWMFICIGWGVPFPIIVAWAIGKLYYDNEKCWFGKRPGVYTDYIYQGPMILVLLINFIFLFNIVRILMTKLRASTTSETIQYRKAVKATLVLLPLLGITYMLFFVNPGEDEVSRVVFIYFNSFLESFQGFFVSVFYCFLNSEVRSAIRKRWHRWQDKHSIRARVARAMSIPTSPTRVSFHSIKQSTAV
The experiment in a line: CRF1 receptor radioligand binding assay ([125I]-oCRF competition, IMR-32 cell membranes). Particulars: IMR-32 cell membranes, [125I]-oCRF 100 pM; read-out: Ki (CRF-1R). Summed up: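 Buffer: Tris pH 7.2 with MgCl2, BSA, Triton X-100, aprotinin, leupeptin; reaction stopped with ice-cold wash and filtered. Nonspecific binding set with 10 μM oCRF.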

For orientation: Ki means the equilibrium dissociation constant of an inhibitor or competing ligand from its target. Consider `CCN(Cc1ccc(Cl)c(Cl)c1)Cc1c(C(F)(F)F)nc2n(-c3c(C)cc(C)cc3C)c(Cl)cn12` [Example 315, [6-Chloro-2-trifluoromethyl-7-(2,4,6-trimethyl-phenyl)-7H-imidazo[1,2-a]imidazol-3-ylmethyl]-(3,4-dichloro-benzyl)-ethyl-amine], for which the Ki is under 1000 nM.

Consider `CCCN(CC1CC1)C(=O)c1c(C(F)(F)F)nc2n1CCCN2c1c(C)cc(C)cc1C` [Example 55, 2-Trifluoromethyl-8-(2,4,6-trimethyl-phenyl)-5,6,7,8-tetrahydro-imidazo[1,2a]pyrimidine-3-carboxylic acid cyclopropylmethyl-propyl-amide], for which the inhibitory constant (Ki) is under 10000 nM.

In the case of `Cc1cc(C)c(-n2c3ncccc3n3c(CN(C)Cc4ccccc4)c(C(F)(F)F)nc23)c(C)c1` [Example 228, Benzyl-methyl-[2-trifluoromethyl-8-(2,4,6-trimethyl-phenyl)-8H-1,3a,7,8-tetraaza-cyclopenta[α]inden-3-ylmethyl]-amine], the Ki was under 1000 nM.

As for `Cc1cc(C)c(-n2c3ncccc3n3c(CN(CCC(F)(F)F)CC4CC4)c(C(F)(F)F)nc23)c(C)c1` [Example 213, Cyclopropylmethyl-[2-trifluoromethyl-8-(2,4,6-trimethyl-phenyl)-8H-1,3a,7,8-tetraaza-cyclopenta[α]inden-3-ylmethyl]-(3,3,3-trifluoro-propyl)-amine], the Ki is under 100 nM.

Take `C=CCN(CCC)Cc1c(C(F)(F)F)nc2n1CCCN2c1c(C)cc(C)cc1Cl` [Example 131, Allyl-[8-(2-chloro-4,6-dimethyl-phenyl)-2-trifluoromethyl-5,6,7,8-tetrahydro-imidazo[1,2-a]pyrimidin-3-ylmethyl]-propyl-amine]: the Ki is under 100 nM.

For `Cc1cc(C)c(-n2c(Cl)cn3c(CN(CCC4CC4)CC(F)(F)F)c(C(F)(F)F)nc23)c(C)c1` [Example 331, [6-Chloro-2-trifluoromethyl-7-(2,4,6-trimethyl-phenyl)-7H-imidazo[1,2-a]imidazol-3-ylmethyl]-(2-cyclopropyl-ethyl)-(2,2,2-trifluoro-ethyl)-amine], the Ki was under 10 nM.

For the molecule `CCCN(CC1CC1)C(=O)c1c(CC)nc2n1CCN2c1c(C)cc(Cl)cc1Cl` [Example 31, 7-(2,4-Dichloro-6-methyl-phenyl)-2-ethyl-6,7-dihydro-5H-imidazo[1,2-a]imidazole-3-carboxylic acid cyclopropylmethyl-propyl-amide], the Ki is under 100 nM.

In the case of `CCCN(Cc1ccccc1)C(=O)c1c(CC)nc2n1CCN2c1c(C)cc(C)cc1C` [Example 25, 2-Ethyl-7-(2,4,6-trimethyl-phenyl)-6,7-dihydro-5H-imidazo[1,2-a]imidazole-3-carboxylic acid benzyl-propyl-amide], the Ki was under 10000 nM.

With `CCCCN(C)Cc1c(C(F)(F)F)nc2n(-c3c(C)cc(C)cc3C)c(Cl)cn12` [Example 310, Butyl-[6-chloro-2-trifluoromethyl-7-(2,4,6-trimethyl-phenyl)-7H-imidazo[1,2-a]imidazol-3-ylmethyl]-methyl-amine], the Ki is under 1000 nM.

Turning to `CCCCN(CC)Cc1c(C(F)(F)F)nc2n1CCCN2c1c(C)cc(C)cc1Cl` [Example 108, Butyl-[8-(2-chloro-4,6-dimethyl-phenyl)-2-trifluoromethyl-5,6,7,8-tetrahydro-imidazo[1,2-a]pyrimidin-3-ylmethyl]-ethyl-amine], the Ki was under 1000 nM.

Turning to `CCCCN(CC)Cc1c(CC)nc2n(-c3c(C)cc(C)cc3C)c(Cl)cn12` [Example 294, 3-[(N-Butyl-N-ethylamino)methyl]-6-chloro-2-ethyl-7-(2,4,6-trimethylphenyl)-7H-imidazo[1,2-a]imidazole], the Ki was under 1000 nM.

As to `Cc1cc(C)c(N2CCCn3c2nc(C(F)(F)F)c3CN(CC2CC2)CC(F)(F)C(F)(F)F)c(Cl)c1` [Example 115, [8-(2-Chloro-4,6-dimethyl-phenyl)-2-trifluoromethyl-5,6,7,8-tetrahydro-imidazo[1,2-a]pyrimidin-3-ylmethyl]-cyclopropylmethyl-(2,2,3,3,3-pentafluoro-propyl)-amine], the Ki is under 100 nM.

Take `CCCN(CC1CCC1)C(=O)c1c(CC)nc2n1CCN2c1ccc(C(C)C)cc1Br` [Example 38, 7-(2-Bromo-4-isopropyl-phenyl)-2-ethyl-6,7-dihydro-5H-imidazo[1,2-a]imidazole-3-carboxylic acid cyclobutylmethyl-propyl-amide]: the Ki is under 10000 nM.

With `CCCN(Cc1ccccc1)Cc1c(C(F)(F)F)nc2n(-c3c(C)cc(C)cc3C)c3ccccc3n12` [Example 175, Benzyl-propyl-[2-trifluoromethyl-8-(2,4,6-trimethyl-phenyl)-8H-1,3a,8-triaza-cyclopenta[α]inden-3-ylmethyl]-amine], the Ki is under 10000 nM.

`CCc1nc2n(c1C(=O)N(CC1CC1)CC(F)(F)C(F)(F)F)CCN2c1c(C)cc(Cl)cc1Cl` [Example 32, 7-(2,4-Dichloro-6-methyl-phenyl)-2-ethyl-6,7-dihydro-5H-imidazo[1,2-a]imidazole-3-carboxylic acid cyclopropylmethyl-(2,2,3,3,3-pentafluoro-propyl)-amide]: the Ki is under 100 nM.

In the case of `CCCN(Cc1c(C(F)(F)F)nc2n(-c3c(C)cc(C)cc3C)c3ccccc3n12)CC(F)(F)C(F)(F)F` [Example 158, (2,2,3,3,3-Pentafluoro-propyl)-propyl-[2-trifluoromethyl-8-(2,4,6-trimethyl-phenyl)-8H-1,3a,8-triaza-cyclopenta[α]inden-3-ylmethyl]-amine], the Ki is under 100 nM.

Turning to `Cc1cc(C)c(-n2c(Cl)cn3c(CN(C)Cc4ccco4)c(C(F)(F)F)nc23)c(C)c1` [Example 314, [6-Chloro-2-trifluoromethyl-7-(2,4,6-trimethyl-phenyl)-7H-imidazo[1,2-a]imidazol-3-ylmethyl]-furan-2-ylmethyl-methyl-amine], the inhibitory constant (Ki) is under 1000 nM.

On to `CCN(CCc1ccccc1)Cc1c(C(F)(F)F)nc2n1CCCN2c1c(C)cc(C)cc1C` [Example 84, Ethyl-phenethyl-[2-trifluoromethyl-8-(2,4,6-trimethyl-phenyl)-5,6,7,8-tetrahydro-imidazo[1,2-a]pyrimidin-3-ylmethyl]-amine], for which the Ki is under 1000 nM.

In the case of `Cc1cc(C)c(-n2c3ccccc3n3c(CN(CC4CC4)CC(F)(F)F)c(C(F)(F)F)nc23)c(C)c1` [Example 150], the inhibition constant (Ki) was under 100 nM.

Consider `C=CCN(CCC)Cc1c(CC)nc2n(-c3c(C)cc(C)cc3C)c3ncccc3n12` [Example 249, Allyl-[2-ethyl-8-(2,4,6-trimethyl-phenyl)-8H-1,3a,7,8-tetraaza-cyclopenta[α]inden-3-ylmethyl]-propyl-amine], for which the Ki is under 100 nM.

`Cc1cc(C)c(-n2c(Cl)cn3c(CN(CCC(F)(F)F)Cc4ccccc4)c(C(F)(F)F)nc23)c(C)c1` [Example 327, Benzyl-[6-chloro-2-trifluoromethyl-7-(2,4,6-trimethyl-phenyl)-7H-imidazo[1,2-a]imidazol-3-ylmethyl]-(3,3,3-trifluoro-propyl)-amine]: the Ki was under 100 nM.

With `CCCN(CC1CC1)C(=O)c1c(CC)nc2n1CCN2c1c(C)cc(C)cc1C` [Example 2, 2-Ethyl-7-(2,4,6-trimethyl-phenyl)-6,7-dihydro-5H-imidazo[1,2-α]imidazole-3-carboxylic acid cyclopropylmethyl-propyl-amide], the inhibition constant Ki is under 100 nM.

As to `CCN(Cc1c(C(F)(F)F)nc2n(-c3c(C)cc(C)cc3C)c3ncccc3n12)CC1CC1` [Example 223, Cyclopropylmethyl-ethyl-[2-trifluoromethyl-8-(2,4,6-trimethyl-phenyl)-8H-1,3a,7,8-tetraaza-cyclopenta[α]inden-3-ylmethyl]-amine], the Ki was under 1000 nM.

For the molecule `CCN(Cc1c(C(F)(F)F)nc2n1CCCN2c1c(C)cc(C)cc1Cl)CC1CCC1` [Example 137, [8-(2-Chloro-4,6-dimethyl-phenyl)-2-trifluoromethyl-5,6,7,8-tetrahydro-imidazo[1,2-a]pyrimidin-3-ylmethyl]-cyclobutylmethyl-ethyl-amine], the Ki was under 1000 nM.

With `CCCCN(CC)Cc1c(C(F)(F)F)nc2n(-c3c(C)cc(C)cc3C)c3ccccc3n12` [Example 170, Butyl-ethyl-[2-trifluoromethyl-8-(2,4,6-trimethyl-phenyl)-8H-1,3a,8-triaza-cyclopenta[α]inden-3-ylmethyl]-amine], the Ki is under 1000 nM.

For `Cc1cc(C)c(-n2c(Cl)cn3c(CN(CCC4CC4)CCC(F)(F)F)c(C(F)(F)F)nc23)c(C)c1` [Example 330, [6-Chloro-2-trifluoromethyl-7-(2,4,6-trimethyl-phenyl)-7H-imidazo[1,2-a]imidazol-3-ylmethyl]-(2-cyclopropyl-ethyl)-(3,3,3-trifluoro-propyl)-amine], the Ki is under 10 nM.

In the case of `CCc1nc2n(c1C(=O)N(CC1CC1)CC(F)(F)F)CCN2c1c(C)cc(C)cc1Br` [Example 44, 7-(2-Bromo-4,6-dimethyl-phenyl)-2-ethyl-6,7-dihydro-5H-imidazo[1,2-a]imidazole-3-carboxylic acid cyclopropylmethyl-(2,2,2-trifluoro-ethyl)-amide], the Ki is under 100 nM.

On to `CCN(CCc1ccccc1)Cc1c(C(F)(F)F)nc2n(-c3c(C)cc(C)cc3C)c3ccccc3n12` [Example 174, Ethyl-phenethyl-[2-trifluoromethyl-8-(2,4,6-trimethyl-phenyl)-8H-1,3a,8-triaza-cyclopenta[α]inden-3-ylmethyl]-amine], for which the Ki is under 10000 nM.

The record behind these values is patent US7125990B2, “Imidazolyl derivatives as corticotropin releasing factor inhibitors” (Bristol-Myers Squibb COmpany, priority 2001, dated 2006).
